Columns and labels:
AHR [1] = molecular target: T1, AHR (UniProt P35869); assay: DRE-Luciferase Reporter Assay (Alternate Method) (Example 1B); type: cell-based, murine or human; details: cell line and AHR activating ligand not specified
T1 construct: IC50
T1 sequence (P35869 1-848): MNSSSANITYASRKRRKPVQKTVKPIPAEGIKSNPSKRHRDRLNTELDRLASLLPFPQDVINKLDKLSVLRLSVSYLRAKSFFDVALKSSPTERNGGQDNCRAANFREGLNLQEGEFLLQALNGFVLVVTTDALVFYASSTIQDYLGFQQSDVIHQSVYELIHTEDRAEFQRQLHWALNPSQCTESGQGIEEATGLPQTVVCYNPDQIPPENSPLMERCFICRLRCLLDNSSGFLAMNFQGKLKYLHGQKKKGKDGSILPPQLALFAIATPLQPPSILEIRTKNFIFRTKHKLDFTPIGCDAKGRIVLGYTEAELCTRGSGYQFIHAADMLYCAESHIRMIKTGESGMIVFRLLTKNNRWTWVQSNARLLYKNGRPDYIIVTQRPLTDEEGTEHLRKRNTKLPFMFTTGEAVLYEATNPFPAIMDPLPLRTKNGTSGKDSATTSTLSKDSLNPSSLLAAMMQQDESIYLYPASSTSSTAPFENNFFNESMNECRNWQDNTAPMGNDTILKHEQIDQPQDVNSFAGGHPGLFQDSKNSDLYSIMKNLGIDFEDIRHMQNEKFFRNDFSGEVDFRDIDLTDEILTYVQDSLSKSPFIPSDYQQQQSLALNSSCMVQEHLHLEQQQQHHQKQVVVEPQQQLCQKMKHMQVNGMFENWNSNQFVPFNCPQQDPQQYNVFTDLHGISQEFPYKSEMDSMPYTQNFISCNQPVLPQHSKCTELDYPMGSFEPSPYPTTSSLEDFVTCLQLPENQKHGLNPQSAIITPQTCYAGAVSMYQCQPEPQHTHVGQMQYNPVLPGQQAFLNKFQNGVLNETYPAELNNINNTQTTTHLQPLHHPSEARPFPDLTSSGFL

AHR [2] = molecular target: T1, AHR; assay: DRE-Luciferase Reporter Assay (Example 1A); type: cell-based, murine or human; details: cell line and AHR activating ligand not specified
Description: AHR binds to Dioxin Responsive Elements (DRE) upstream of genes that it activates. One measure of AHR activity is activation of a reporter gene, such as luciferase, downstream of one or multiple DRE elements. Luciferase activity will reflect activation and inhibition of AHR in the cells expressing his reporter.
Murine Hepa1-6 or Hepa-1c1c7 or other murine cell line with a DRE-luciferase reporter either stably or transiently transfected were plated in media in plates (96-well, 384-well or other plates) and incubated overnight at 37° C. in a CO2 incubator. Likewise, human HepG2 or other human cell line with a DRE-luciferase reporter either stably or transiently transfected were plated in media in plates (96-well, 384-well or other plates) and incubated overnight at 37° C. in a CO2 incubator.
The next day, an AHR activating ligand, such as TCDD, kynurenine, ITE (2-(1H-indole-3-ylcarbonyl)-4-thiazolecarboxylic methyl ester), VAF347, BNF (beta-naphthoflavone), FICZ (6-formylindolo(3,2-b) carbazole or other AHR ligands, was added with or without AHR antagonist.
Cells were incubated for 4, 15 or 24 hours or another time point and then lysed for determination of luciferase activity as a read-out of the AHR activation or inhibition. Luciferase was measured with a commercial kit such as the Promega Luciferase kit or any kit or reagents that provide the luciferin substrate for measuring luciferase activity. The level of luciferase with only activating ligand added was the maximum signal while the luciferase with no ligand was the minimum signal. IC50 values were determined as the concentration which inhibits half of the luciferase activity.

B16-IDO murine melanoma = assay: Efficacy study in the mouse melanoma model B16-IDO (Example 1H); type: in vivo; details: B16-IDO in C57BL/6 mice, FIG. 4
Description: B16-IDO is a murine melanoma carcinoma cell line that has been engineered to overexpress IDO1 (Holmgaard, 2015 Cell Reports). B16-IDO cells were cultured in DMEM supplemented with 10% FBS. 2×10^5 B16-IDO cells in 50 μl PBS were implanted intradermally in 6-8 week old female, C57BL/6 mice. Dosing for the efficacy study starts 7 days post implant: AHR antagonist I-70 was dosed orally, every day (QD) at or 10 mg/kg for 2 weeks. Anti-PD-1 (BioXcell RMP1-14) was administered every 3rd day, intraperitoneally (IP) at 250 μg/mouse for five total doses. Tumors were monitored by caliper measurement every 2-3 days and body weight measured three times per week.

[3] = system: CD3/CD28 activated human T cells; assay: T-Cell Study with I-70 (Example 1F); type: cell-based; details: human T cells activated with CD3/CD28 tetramer, 24 hours
Description: Human T cells were isolated by CD3 negative selection after isolation of PBMCs from blood of human donors via ficoll density gradient centrifugation. One million T cells were activated with 25 uL of CD3/CD28 tetramer (Stemcell) in the presence or absence of I-70 for 24 hours, after which media was removed and stored at −80 C for later cytokine analysis. Cells were then washed 2× with PBS, before isolating RNA according to the manufacturer's instructions for the RNAeasy mini kit (Qiagen).
RNA was converted to cDNA using VILO-IV RT mastermix (Thermofisher), and q-RT-PCR was performed to determine levels of IL-22 (Hs01574154_m1), Cyp1a1 (Hs01054797_g1), and GAPDH (Hs00266705_g1). Data was analyzed using the ddCT method whereby each sample is first normalized to GAPDH housekeeping gene before being normalized to control treatment.
Cytokine levels were determined utilizing the mesoscale discovery (MSD) platform (K15067L-2) and MSD analysis software according to the manufacturer's instructions. IL-22 protein levels are decreased and pro-inflammatory IL-2 protein levels are increased by treatment with I-70, as shown in FIG. 2.

CC(C)c1cnn2c(NCCc3c[nH]c4ccccc34)cc(-c3cncc(F)c3)nc12 [I-2, N-(2-(1H-indol-3-yl)ethyl)-5-(5-fluoropyridin-3-yl)-3-isopropylpyrazolo[1,5-a]pyrimidin-7-amine]
IC50 (AHR [1]): < 500 nM | IC50 (AHR [2]): < 500 nM

CC(C)c1cnn2c(N[C@@H]3CCc4[nH]c5ccccc5c4C3)nc(-c3cncc(F)c3)nc12 [I-40, (3R)—N-[2-(5-Fluoro-3-pyridyl)-8-isopropyl-pyrazolo[1,5-a][1,3,5]triazin-4-yl]-2,3,4,9-tetrahydro-1H-carbazol-3-amine]
IC50 (AHR [1]): < 500 nM

Cc1cnn2c(NCCc3c[nH]c4ccccc34)cc(-c3cncc(F)c3)nc12 [I-70, 5-(5-Fluoro-3-pyridyl)-N-[2-(1H-indol-3-yl)ethyl]-3-methyl-pyrazolo[1,5-a]pyrimidin-7-amine]
Tumor growth (B16-IDO murine melanoma; I-70 alone, orally QD 10 mg/kg for 2 weeks): inhibited | Tumor growth (B16-IDO murine melanoma; I-70 in combination with anti-PD-1 (IP 250 μg/mouse every 3rd day)): inhibited | IL-22 protein levels ([3]; MSD platform, FIG. 2): decreased | pro-inflammatory IL-2 protein levels ([3]; MSD platform, FIG. 2): increased | IL22 RNA expression levels ([3]; q-RT-PCR, FIG. 1): inhibited | cyp1a1 RNA expression levels ([3]; q-RT-PCR, FIG. 1): inhibited

Cc1cnn2c(N[C@@H]3CCc4[nH]c5ccccc5c4C3)nc(-c3cncc(F)c3)nc12 [I-201, (3R)—N-[2-(5-fluoro-3-pyridyl)-8-methyl-pyrazolo[1,5-a][1,3,5]triazin-4-yl]-2,3,4,9-tetrahydro-1H-carbazol-3-amine]
IC50 (AHR [1]): < 500 nM

From patent publication US11358969B2, “Indole AHR inhibitors and uses thereof” (Ikena Oncology, Inc., priority 2017, dated 2022)
